Assay results from EP1985624A2, “Single step method of radiofluorination of biologically active compounds or biomolecules” (Bayer Schering Pharma Aktiengesellschaft, priority 2007, dated 2008).
*1 amine or outer side, *2 acyl side, *3 side chain or, on linkers, in order; H or OH if unused. Where a SMILES comes first, the peptide text is derived from it. [ ]: non-standard residue; d: D form. The star is where a group is joined. X3 = CC(C)[C@H](N[*:1])[C@H](O)CC(=O)[*:2]; Benzoyl(3-CN,4-F) = N#Cc1cc(C(=O)*)ccc1F; Benzoyl(3,4-F2) = O=C(c1ccc(F)c(F)c1)*; NMeH = CN[C@@H](Cc1c[nH]cn1)C(=O)O; X1 = CCC(C)C(CCC(=O)[*:2])N[*:1]; β3hI = CC[C@H](C)[C@H](N)CC(=O)O; Tle = CC(C)(C)[C@H](N)C(=O)O; β3hL = CC(C)C[C@H](N)CC(=O)O; Ava = NCCCCC(=O)O; βAla = NCCC(=O)O; Sar = CNCC(=O)O

Molecular target: T1, human bombesin 2 receptor (GRPR) (Homo sapiens, UniProt P30550)
T1 construct: using GRPR-containing cell membranes (Perkin Elmer); purchased Perkin Elmer
T1 sequence (P30550 whole entry): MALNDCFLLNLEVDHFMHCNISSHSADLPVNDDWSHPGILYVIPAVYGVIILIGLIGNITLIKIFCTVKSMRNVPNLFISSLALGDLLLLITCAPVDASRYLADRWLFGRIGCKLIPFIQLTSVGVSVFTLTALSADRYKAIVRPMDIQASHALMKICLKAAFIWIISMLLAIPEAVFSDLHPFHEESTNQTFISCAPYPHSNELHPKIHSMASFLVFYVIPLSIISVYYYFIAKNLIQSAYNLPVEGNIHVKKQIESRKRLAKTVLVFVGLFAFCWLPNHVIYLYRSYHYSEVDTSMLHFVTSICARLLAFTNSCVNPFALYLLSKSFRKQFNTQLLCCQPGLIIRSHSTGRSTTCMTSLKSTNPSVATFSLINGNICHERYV
Experiment: competitive receptor-binding assay (scintillation proximity assay) with 125I-[Tyr4]-Bombesin
Details: not given
Experimental: In vitro binding affinity and specificity of Bombesin analogs for the human bombesin 2 receptor (GRPR) were assessed via a competitive receptor-binding assay using ^125I-[Tyr^4]-Bombesin (Perkin Elmer; specific activity 81.4 TBq/mmol) as GRPR-specific radioligand. The assay was performed based on the scintillation proximity assay (SPA) technology (Carpenter JW et al., Meth Mol Biol 2002; 190:31-49) using GRPR-containing cell membranes (Perkin Elmer) and wheat germ agglutinin (WGA)-coated PVT beads (Amersham Bioscience).
(§1) Briefly, GRPR-containing membranes and WGA-PVT beads were mixed in assay buffer (50 mM Tris/HCl pH 7.2, 5 mM MgCl2, 1 mM EGTA, Complete protease inhibitor (Roche Diagnostics GmbH) and 0.3% PEI) to give final concentrations of approximately 100 µg/ml protein and 40 mg/ml PVT-SPA beads. The ligand ^125I-[Tyr^4]-Bombesin was diluted to 0.5 nM in assay buffer. The test compounds were dissolved in DMSO to give 1 mM stock solutions Later on, they were diluted in assay buffer to 8 pM - 1.5 µM.
The assay was then performed as follows: First, 10 µl of compound solution to be tested for binding were placed in white 384 well plates (Optiplate-384, Perkin-Elmer). At next, 20 µl GRPR/WGA-PVT bead mixture and 20 µl of the ligand solution were added. After 90 minutes incubation at room temperature, another 50 µl of assay buffer were added, the plate sealed and centrifuged for 10 min at 520xg at room temperature. Signals were measured in a TopCount (Perkin Elmer) for 1 min integration time per well. The IC50 was calculated by nonlinear regression using the GraFit data analysis software (Erithacus Software Ltd.). Furthermore, the KI was calculated based on the IC50 for test compound as well as the KD and the concentration of the ligand ^125I-[Tyr^4]-Bombesin. Experiments were done with quadruple samples.
The Binding affinities measured for all the cold F-19 compounds are listed Table 2.
as §1, with “Lateron,” for “Later on,”

First: CC(C)C[C@H](NC(=O)[C@H](Cc1ccccc1)NC(=O)[C@H](Cc1c[nH]cn1)N(C)C(=O)CCNC(=O)[C@@H](NC(=O)[C@H](C)NC(=O)[C@H](Cc1c[nH]c2ccccc12)NC(=O)[C@H](CCC(N)=O)NC(=O)CCCCNC(=O)c1ccc(F)c(F)c1)C(C)C)C(N)=O [IIB-a-54] ({Benzoyl(3,4-F2)-Ava}-QWAV[βAla][NMeH]FL-NH2)
Second: CC(C)C[C@H](NC(=O)[C@H](Cc1ccccc1)NC(=O)[C@@H](Cc1c[nH]cn1)NC(=O)CCNC(=O)[C@@H](NC(=O)[C@H](C)NC(=O)[C@H](Cc1c[nH]c2ccccc12)NC(=O)[C@H](CCC(N)=O)NC(=O)CCCCNC(=O)c1ccc(F)c(F)c1)C(C)C)C(N)=O [IIB-a-55] ({Benzoyl(3,4-F2)-Ava}-QWAV[βAla][dH]FL-NH2)
The Ki of the first is 48-fold lower: 0.4 nM for the first, 19 nM for the second.

Going from `CCC(C)C(CCC(=O)N[C@@H](CC(C)C)C(N)=O)NC(=O)[C@H](Cc1c[nH]cn1)NC(=O)CNC(=O)[C@@H](NC(=O)[C@H](C)NC(=O)[C@H](Cc1c[nH]c2ccccc12)NC(=O)[C@H](CCC(N)=O)NC(=O)CCCCNC(=O)c1ccc(F)c(C#N)c1)C(C)C` (stereo partly drawn) [IIB-a-17, 4-[19]-Fluoro-3-cyano-benzoyl-Ava-Gln-Trp-Ala-Val-Gly-His-4-Am,S-MeHpA-Leu-NH2] ({Benzoyl(3-CN,4-F)-Ava}-QWAVGH[X1]L-NH2) to `CCC(C)C(CCC(=O)N[C@@H](CC(C)C)C(N)=O)NC(=O)[C@H](Cc1c[nH]cn1)N(C)C(=O)CNC(=O)[C@@H](NC(=O)[C@H](C)NC(=O)[C@H](Cc1c[nH]c2ccccc12)NC(=O)[C@H](CCC(N)=O)NC(=O)CCCCNC(=O)c1ccc(F)c(F)c1)C(C)C` (stereo partly drawn) [IIB-a-50, 3,4-[19]Difluorobenzoyl-Ava-Gln-Trp-Ala-Val-Gly-NMeHis-4-Am,5-MeHpA-Leu-NH2] ({Benzoyl(3,4-F2)-Ava}-QWAVG[NMeH][X1]L-NH2), the Ki rises from 1.9 nM to over 25 nM.

Work on `CC(C)C[C@H](NC(=O)C[C@@H](O)[C@@H](NC(=O)[C@H](Cc1c[nH]cn1)NC(=O)CN(C)C(=O)[C@@H](NC(=O)[C@H](C)NC(=O)[C@H](Cc1c[nH]c2ccccc12)NC(=O)[C@H](CCC(N)=O)NC(=O)CCCCNC(=O)c1ccc(F)c(F)c1)C(C)C)C(C)C)C(N)=O` [IIB-a-51] ({Benzoyl(3,4-F2)-Ava}-QWAV[Sar]H[X3]L-NH2) yielded a Ki of over 25 nM.

Same assay, conditions: GRPR-containing cell membranes, 125I-[Tyr4]-Bombesin, 90 minutes at room temperature; Table 2, B1 = CO; read-out: Ki

Compared with `CC(C)C[C@@H](CC(=O)N[C@@H](CC(C)C)C(N)=O)NC(=O)[C@H](Cc1c[nH]cn1)NC(=O)CCNC(=O)[C@@H](NC(=O)[C@H](C)NC(=O)[C@H](Cc1c[nH]c2ccccc12)NC(=O)[C@H](CCC(N)=O)NC(=O)CCCCNC(=O)c1ccc(F)c(F)c1)C(C)C` [IIB-a-56] ({Benzoyl(3,4-F2)-Ava}-QWAV[βAla]H[β3hL]L-NH2), `CC[C@H](C)[C@@H](CC(=O)N[C@@H](CC(C)C)C(N)=O)NC(=O)[C@H](Cc1c[nH]cn1)NC(=O)CCNC(=O)[C@@H](NC(=O)[C@H](C)NC(=O)[C@H](Cc1c[nH]c2ccccc12)NC(=O)[C@H](CCC(N)=O)NC(=O)CCCCNC(=O)c1ccc(F)c(F)c1)C(C)C` [IIB-a-57] ({Benzoyl(3,4-F2)-Ava}-QWAV[βAla]H[β3hI]L-NH2) is higher in Ki: 45 nM for the first, over 50 nM for the second.

`CC(C)C[C@@H](CC(=O)N[C@H](C(N)=O)C(C)(C)C)NC(=O)[C@H](Cc1c[nH]cn1)NC(=O)CCNC(=O)[C@@H](NC(=O)[C@H](C)NC(=O)[C@H](Cc1c[nH]c2ccccc12)NC(=O)[C@H](CCC(N)=O)NC(=O)CCCCNC(=O)c1ccc(F)c(F)c1)C(C)C` [IIB-a-58] ({Benzoyl(3,4-F2)-Ava}-QWAV[βAla]H[β3hL][Tle]-NH2) showed a Ki of over 50 nM.

Test system: not listed separately
Experiment: human serum stability of the F-18 labeled peptide (HPLC purity)
Format: in vitro ADME
Details: 37°C for 90 min, purity assessed by HPLC (phosphate buffer and TFA mobile phases)
Experimental: To qualify for pre-clinical and clinical use, it is necessary to establish the stability of the compound in human serum. The compound a 70 µL of human serum containing the F-18 labeled peptide (5.89 MBq/mL) was incubated at 37°C for 90 min. An aliquot was withdrawn at various intervals and the purity assessed by HPLC. The purity was evaluated in under two different conditions. Potassium hydrogen phosphate buffer system was used as a mobile phase to measure the stability of attached F-18 label. Column: C-18, Gradient: A: 10mM K2HPO4 pH:9,04; B: 10mM K2HPO4 pH:9,04/ACN 3/ 7; Flow rate: 2 mL, 5% A to 95% B in 7 min. [formula] [formula] [formula]
Trifluoroacetic acid system was used as a mobile phase to measure the stability of the entire molecule. Column: C-18, Gradient: A: 10% CH3CN: 90% H2O, B:90% CH3CN: 10% H2O containing 0.1 % TFA. [formula] [formula] [formula]

With “4-[18]Fluoro-3-cyano-benzoyl-Arg-Ava-Gln-Trp-Ala-Val-NMeGly-His-Sta-Leu-NH2 [IIA-a-1]” the “stability in human serum” value was “stable in human serum”.
